Results on four molecules are retold here after ChEMBL document CHEMBL4371077, “Cyclic tripeptide-based potent human SIRT7 inhibitors” (Bioorg Med Chem Lett, 2019).

Residues, ends and D or L forms follow the SMILES beside them. Where only a bound is given, the exact number is not on record here.

Data set [1] has as its target T1, NAD-dependent protein deacetylase sirtuin-3, mitochondrial (Homo sapiens, UniProt Q9NTG7).
T1 sequence (Q9NTG7 whole entry): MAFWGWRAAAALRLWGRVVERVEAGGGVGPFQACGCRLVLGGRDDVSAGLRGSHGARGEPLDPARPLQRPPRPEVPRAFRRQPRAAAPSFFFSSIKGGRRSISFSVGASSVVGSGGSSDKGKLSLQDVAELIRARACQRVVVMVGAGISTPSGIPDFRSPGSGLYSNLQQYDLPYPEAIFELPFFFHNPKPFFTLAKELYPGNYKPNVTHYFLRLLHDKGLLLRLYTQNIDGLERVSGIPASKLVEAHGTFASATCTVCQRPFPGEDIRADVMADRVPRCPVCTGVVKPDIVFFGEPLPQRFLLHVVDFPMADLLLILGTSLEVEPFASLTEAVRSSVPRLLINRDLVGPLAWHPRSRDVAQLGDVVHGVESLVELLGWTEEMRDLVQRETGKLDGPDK
As to the kind of experiment: Inhibition of deacetylation activity of recombinant human N-terminal His6-tagged SIRT3 (101 to 399 residues) expressed in Escherichia coli using H2N-HK-[Nepsilon-acetyl-lysine]-LM-COOH as substrate measured after 10 mins by HPLC analysis.

Data set [2] addresses NAD-dependent protein deacylase sirtuin-5, mitochondrial (Homo sapiens, UniProt Q9NXA8). As to the kind of experiment: Inhibition of desuccinylation activity of recombinant human full length N-terminal GST-tagged SIRT5 expressed in Escherichia coli using CH3CONH-AR-[Nepsilon-succinyl-lysine]-ST-CONH2 as substrate measured after 5 mins by HPLC analysis.
For data set [3], the target named is T2, NAD-dependent protein deacetylase sirtuin-1 (Homo sapiens, UniProt Q96EB6).
T2 sequence (Q96EB6 whole entry): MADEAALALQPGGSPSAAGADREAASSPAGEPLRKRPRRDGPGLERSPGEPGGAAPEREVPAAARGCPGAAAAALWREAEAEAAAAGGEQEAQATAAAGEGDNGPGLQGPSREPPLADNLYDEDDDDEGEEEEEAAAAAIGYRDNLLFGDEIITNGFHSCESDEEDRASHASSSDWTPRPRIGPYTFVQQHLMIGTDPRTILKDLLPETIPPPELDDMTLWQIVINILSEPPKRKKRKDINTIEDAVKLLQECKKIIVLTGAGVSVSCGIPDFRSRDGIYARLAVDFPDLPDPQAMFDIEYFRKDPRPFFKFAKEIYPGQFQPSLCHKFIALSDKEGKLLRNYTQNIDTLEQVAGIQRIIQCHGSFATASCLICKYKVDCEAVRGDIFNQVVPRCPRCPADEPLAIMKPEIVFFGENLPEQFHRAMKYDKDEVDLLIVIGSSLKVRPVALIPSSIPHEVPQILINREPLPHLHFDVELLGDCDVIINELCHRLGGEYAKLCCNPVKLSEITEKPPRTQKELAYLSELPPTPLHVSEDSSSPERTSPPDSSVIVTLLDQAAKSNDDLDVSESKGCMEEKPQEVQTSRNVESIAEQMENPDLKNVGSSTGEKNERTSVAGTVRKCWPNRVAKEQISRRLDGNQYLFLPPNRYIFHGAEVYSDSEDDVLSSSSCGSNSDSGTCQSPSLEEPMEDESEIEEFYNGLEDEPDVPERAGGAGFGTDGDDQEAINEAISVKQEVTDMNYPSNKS
As to the kind of experiment: Inhibition of recombinant human SIRT1 deacetylase activity using H2N-HK-[Nepsilon-acetyl-lysine]-LM-COOH as substrate measured after 10 mins by HPLC analysis.

For data set [4], the target named is NAD-dependent protein deacylase sirtuin-6 (Homo sapiens, UniProt Q8N6T7). The data set is described as follows: Inhibition of demyristoylation activity of recombinant human full length N-terminal His6-tagged SIRT6 expressed in Escherichia coli using H2N-EALPK-[Nepsilon-myristoyl-lysine]-TGGPQ-CONH2 as substrate measured after 12 mins by HPLC analysis.
NAD-dependent protein deacylase sirtuin-6, sequence (Q8N6T7 whole entry): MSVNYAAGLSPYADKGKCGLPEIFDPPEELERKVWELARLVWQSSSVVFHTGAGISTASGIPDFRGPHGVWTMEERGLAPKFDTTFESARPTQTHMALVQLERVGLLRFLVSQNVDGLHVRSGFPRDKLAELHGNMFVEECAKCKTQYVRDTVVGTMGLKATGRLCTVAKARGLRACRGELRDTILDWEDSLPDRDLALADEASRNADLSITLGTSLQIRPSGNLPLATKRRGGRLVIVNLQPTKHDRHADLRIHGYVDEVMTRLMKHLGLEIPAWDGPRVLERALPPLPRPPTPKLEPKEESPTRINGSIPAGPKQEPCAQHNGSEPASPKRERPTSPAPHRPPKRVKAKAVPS
For data set [5], the target named is T3, NAD-dependent protein deacetylase sirtuin-2 (Homo sapiens, UniProt Q8IXJ6).
T3 sequence (Q8IXJ6 whole entry): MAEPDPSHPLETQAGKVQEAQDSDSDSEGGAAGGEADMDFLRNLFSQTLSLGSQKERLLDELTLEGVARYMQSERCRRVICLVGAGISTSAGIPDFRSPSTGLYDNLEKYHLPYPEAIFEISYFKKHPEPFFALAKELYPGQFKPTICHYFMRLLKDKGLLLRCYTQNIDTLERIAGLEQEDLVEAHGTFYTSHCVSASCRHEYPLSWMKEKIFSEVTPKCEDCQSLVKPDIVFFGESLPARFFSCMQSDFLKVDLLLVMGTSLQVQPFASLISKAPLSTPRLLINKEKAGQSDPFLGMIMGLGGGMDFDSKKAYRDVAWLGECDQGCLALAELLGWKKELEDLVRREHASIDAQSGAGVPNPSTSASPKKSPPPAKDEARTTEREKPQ
As to the kind of experiment: Inhibition of deacetylation activity of recombinant human N-terminal His6-tagged SIRT2 (2 to 389 residues) expressed in Escherichia coli using H2N-HK-[Nepsilon-acetyl-lysine]-LM-COOH as substrate measured after 12 mins by HPLC analysis.

Data set [6] can be described thus: Proteolytic stability of the compound assessed as Streptomyces griseus pronase-mediated compound hydrolysis by measuring parent compound remaining after 6 mins by HPLC method. Format: ADME. The following applies: read-out: Stability.
Data set [7] has as its target T4, NAD-dependent protein deacetylase sirtuin-7 (Homo sapiens, UniProt Q9NRC8).
T4 sequence (Q9NRC8 whole entry): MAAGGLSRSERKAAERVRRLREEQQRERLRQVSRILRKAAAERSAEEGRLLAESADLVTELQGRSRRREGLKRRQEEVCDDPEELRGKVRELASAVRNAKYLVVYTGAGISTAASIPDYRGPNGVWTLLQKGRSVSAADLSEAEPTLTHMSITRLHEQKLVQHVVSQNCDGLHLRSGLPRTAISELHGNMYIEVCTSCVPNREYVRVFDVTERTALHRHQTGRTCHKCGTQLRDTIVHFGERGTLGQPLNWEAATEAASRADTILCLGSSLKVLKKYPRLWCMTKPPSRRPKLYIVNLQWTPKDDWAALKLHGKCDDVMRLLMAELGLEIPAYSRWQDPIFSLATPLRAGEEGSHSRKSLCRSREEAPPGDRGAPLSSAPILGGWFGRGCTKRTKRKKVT
The data set is described as follows: Inhibition of tRNA-activated deacetylation activity of recombinant human full length N-terminal His6-tagged SIRT7 expressed in Escherichia coli using H2N-GGKAPR-[Nepsilon-acetyl-lysine]-QLATKA-CONH2 as substrate measured after 30 mins by HPLC analysis.

Broadly, the IC50 is the midpoint of a concentration-inhibition curve.

NAD-dependent protein deacylase sirtuin-5, mitochondrial, sequence (Q9NXA8 whole entry): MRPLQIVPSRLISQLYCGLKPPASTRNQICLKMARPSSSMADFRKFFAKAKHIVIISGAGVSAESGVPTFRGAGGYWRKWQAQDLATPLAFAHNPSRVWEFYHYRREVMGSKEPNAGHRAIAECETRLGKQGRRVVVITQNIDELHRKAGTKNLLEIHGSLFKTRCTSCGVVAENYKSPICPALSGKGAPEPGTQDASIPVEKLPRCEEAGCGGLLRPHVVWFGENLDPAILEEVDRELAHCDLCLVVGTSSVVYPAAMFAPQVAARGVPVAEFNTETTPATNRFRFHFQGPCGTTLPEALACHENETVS

Take `CCCCCCCCCCCCNC(=O)CCCCC[C@@H]1NC(=O)[C@H](CCCNC(=N)N)NC(=O)CNC(=O)CCC(=O)NCC(=O)NCCCC[C@@H](C(N)=O)NC1=O`: the IC50 is 4.2 µM in data set [1]; more than 200 µM in data set [2]; 4.3 µM in data set [3]; 11.2 µM in data set [4]; 0.55 µM in data set [5]; 5 µM in data set [7]. In addition, in data set [6], the remaining at 0.1 h amounted to 89.9%.
As for `CCCCCCCCCCCCNC(=S)NCCCC[C@@H]1NC(=O)[C@H](CCCNC(=N)N)NC(=O)CNC(=O)CCC(=O)NCC(=O)NCCCC[C@@H](C(N)=O)NC1=O`, the IC50 in data set [1] is 1.6 µM; in data set [2] it was more than 150 µM; in data set [3] it was 1.8 µM; in data set [4], 7.9 µM; in data set [5], 10.3 µM; in data set [7], 11.1 µM. In data set [6], the remaining at 0.1 h amounted to 55.7%.
Regarding `CCCCCCCCCCCCCCNC(=S)NCCCC[C@@H]1NC(=O)[C@H](CCCNC(=N)N)NC(=O)CNC(=O)CCC(=O)NCC(=O)NCCCC[C@@H](C(N)=O)NC1=O`, the concentration for half-maximal inhibition (IC50) in data set [7] came to 85.3 µM.
Take `CSCC[C@H](NC(=O)[C@H](CC(C)C)NC(=O)[C@H](CCCCNC(C)=O)NC(=O)[C@H](CCCCN)NC(=O)[C@@H](N)Cc1cnc[nH]1)C(=O)O` (H-HKK(Ac)LM-OH): the remaining at 0.1 h in data set [6] was 51.1%.
